Results taken from patent US20220323443A1, “COMBINATION THERAPY FOR CANCER TREATMENT” (TAKEDA PHARMACEUTICAL COMPANY LIMITED, priority 2019, published 2022).
Counter-ions that a name gives are not always drawn. Like-named read-outs stand apart in the source and are kept apart here. *1 amine or outer side, *2 acyl side, *3 side chain or, on linkers, in order; H or OH if unused. Where a SMILES comes first, the peptide text is derived from it. Bridges are numbered along the chain shown (N, C = ends). Roman numbers before positions name the chains, in order. [ ]: non-standard residue; d: D form. Actinocin(9to1) = Cc1c2oc3c(C)ccc(C(=O)[*:1])c3nc-2c(C(=O)[*:2])c(N)c1=O; NMeV = CN[C@H](C(=O)O)C(C)C; Sar = CNCC(=O)O

Legend:
Assay in all cases: In vitro combination study with Compound 1, Cell Titer-Glo (ATP) cell viability, 72 h;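 as to Call, anti-proliferative effect of combination with Compound 1, A549: Ten-by-ten dose matrices of the two agents in duplicate, compounds added 16 h post-plating, activity relative to DMSO vehicle wells, call reflects synergy evaluation from luminescence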;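 as to Call, anti-proliferative effect of combination with Compound 1, COLO205: Ten-by-ten dose matrices of both agents in duplicate plus single-agent dilutions, luminescent ATP read-out, percent activity per well relative to DMSO vehicle wells, synergy call from these matrices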;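 as to Call, anti-proliferative effect of combination with Compound 1, H460: Ten-by-ten dose matrices of both drugs alongside single-agent dilutions, luminescence read 72 hours after compound addition, percent activity per well versus vehicle (DMSO) plate controls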;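 as to Call, anti-proliferative effect of combination with Compound 1, HCT116: combination call from 10×10 dose matrices in duplicate, graded by synergy, with percent activity per well relative to DMSO vehicle controls on the same plate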;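 as to Call, anti-proliferative effect of combination with Compound 1, SW620: Ten-by-ten dose matrices of both drugs in 384-well plates, luminescent ATP read-out, synergy evaluated against single-agent and DMSO vehicle controls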
[1] = tested on: SW620 cancer cells; assay type: cell-based;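 also: Ten-by-ten dose matrices of both drugs in 384-well plates, luminescent ATP read-out, synergy evaluated against single-agent and DMSO vehicle controls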
[2] = tested on: COLO205 cancer cells; assay type: cell-based, human;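 also: Ten-by-ten dose matrices of both agents in duplicate plus single-agent dilutions, luminescent ATP read-out, percent activity per well relative to DMSO vehicle wells, synergy call from these matrices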
Description: Each combination pair was evaluated in an individual 384-well plate which contained variable doses of both compounds as single agents, as well as two, ten-by-ten matrices (in duplicate) that contained mixtures of the two test compounds. In brief, compounds were added to the cell test plates 16 hours after cell plating and then assessed for viability 72 hours later. Continuous cultures of tumor cells were maintained under standard cell culturing conditions (i.e. in a humidified chamber set at 37° C., containing atmosphere 5% carbon dioxide). […] Seventy-two hours after compound addition, ATP levels were measured to assess cell viability. Plating densities were chosen to ensure optimal linear growth over the 72 hour period.
Compound dilution and compound delivery to the assay plates were done on HighRes Robotic System (HighRes Biosolutions, Woburn, Mass., USA) with Echo™ Liquid Handler (Labcyte, Sunnyvale, Calif., USA). […] Next, these were used for compound transfer into cell assay plates. All wells were back-filled to give a constant percentage of DMSO.
The final DMSO concentration was held constant in all wells across the plate and was maintained at less than 0.5%. […] Cells treated with vehicle (DMSO) in two rows, or single compound serial dilutions in one plate columns/row served as the untreated control and single compound controls, respectively.
Compound activity in A549, COLO205, H460, HCT116, SW48, SW620 cancer cell lines was assessed using Cell Titer-Glo® (Promega [Madison, Wis., USA]). After 72 hours incubation, the plates were treated as per package insert protocol for the Promega Luminescence ATP Detection Systems. Briefly, 25 μL of cell lysis/substrate solution (provided in kit form) was added to each well and the plate was incubated at room temperature for 10 minutes. Luminescence was measured using a PHERAstar multi-label counter (BMG Labtech [Ortenberg, Germany]) or LEADseeker (GE Healthcare Life Sciences [Piscataway, N.J., USA]).
Numerical luminescence values were analyzed to generate EC50 curves and evaluate synergy. Raw Data reader files were uploaded along with automation workfiles that defined the plate and well contents. Percent activities were calculated for each well versus plate controls.
Each plate representing a single drug combination was analyzed separately. First, the viability measurements were normalized by scaling the data so that the median of the negative controls was 0 and the median of the positive controls was 100.
For the combination analysis, a response surface model was used to describe the relationship between the normalized viability and the drug concentrations. The data were fit to the model by minimizing the residual sum of squares. Based on the fitted response surface, plots of constant viability, called isobolograms, were produced.
The Combination Index and Nonlinear Blending were used as measures of drug synergy. To calculate Combination Index the 50% isobologram (which is the dose contour that has 50% viability) was used. […] A standard procedure was created to produce a call in order to characterize the viability effects for each combination (synergy, additivity, subadditivity, or antagonism). If the Combination Index existed then these measures were used to make the call.

[3] = tested on: HCT116 cancer cells; assay type: cell-based;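 also: combination call from 10×10 dose matrices in duplicate, graded by synergy, with percent activity per well relative to DMSO vehicle controls on the same plate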
[4] = tested on: H460 cancer cells; assay type: cell-based;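 also: Ten-by-ten dose matrices of both drugs alongside single-agent dilutions, luminescence read 72 hours after compound addition, percent activity per well versus vehicle (DMSO) plate controls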
[5] = tested on: A549 cancer cells; assay type: cell-based;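 also: Ten-by-ten dose matrices of the two agents in duplicate, compounds added 16 h post-plating, activity relative to DMSO vehicle wells, call reflects synergy evaluation from luminescence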
[6] = Table 5 drug combined with Compound 1, 72 h
[7] = DNA damaging agent combined with Compound 1, 72 h

Row | Compound | Call, anti-proliferative effect of combination with Compound 1, SW620 [1, 6] | Call, anti-proliferative effect of combination with Compound 1, COLO205 [2, 6] | Call, anti-proliferative effect of combination with Compound 1, HCT116 [3, 6] | Call, anti-proliferative effect of combination with Compound 1, A549 [5, 6] | Call, anti-proliferative effect of combination with Compound 1, COLO205 [2, 7] | Call, anti-proliferative effect of combination with Compound 1, HCT116 [3, 7] | Call, anti-proliferative effect of combination with Compound 1, H460 [4, 6] | further results
1 | Cc1cc2c(C(C)C)c(O)c(O)c(C=O)c2c(O)c1-c1c(C)cc2c(C(C)C)c(O)c(O)c(C=O)c2c1O [AT101] |  |  |  |  |  |  |  | Call, anti-proliferative effect of combination with Compound 1, SW620 [1]: Additivity (key: Inconclusive: Any; Additivity: 0.7 to 1.3; Synergy: 0 to 0.7; Subadditivity: 1.3 to 2; Antagonism: >2); Call, anti-proliferative effect of combination with Compound 1, COLO205 [2]: Additivity (key: Inconclusive: Any; Additivity: 0.7 to 1.3; Synergy: 0 to 0.7; Subadditivity: 1.3 to 2; Antagonism: >2); Call, anti-proliferative effect of combination with Compound 1, HCT116 [3]: Additivity (key: Inconclusive: Any; Additivity: 0.7 to 1.3; Synergy: 0 to 0.7; Subadditivity: 1.3 to 2; Antagonism: >2); Call, anti-proliferative effect of combination with Compound 1, H460 [4]: Additivity (key: Inconclusive: Any; Additivity: 0.7 to 1.3; Synergy: 0 to 0.7; Subadditivity: 1.3 to 2; Antagonism: >2); Call, anti-proliferative effect of combination with Compound 1, A549 [5]: Additivity (key: Inconclusive: Any; Additivity: 0.7 to 1.3; Synergy: 0 to 0.7; Subadditivity: 1.3 to 2; Antagonism: >2)
2 | CCNC(=O)c1noc(-c2cc(C(C)C)c(O)cc2O)c1-c1ccc(CN2CCOCC2)cc1 [AUY-922] | Additivity (0.7 to 1.3) | Additivity (0.7 to 1.3) | Additivity (0.7 to 1.3) | Additivity (0.7 to 1.3) |  |  |  | 
3 | CN1CC[C@H](c2c(O)cc(O)c3c(=O)cc(-c4ccccc4Cl)oc23)[C@H](O)C1 [Alvocidib] | Subadditivity (1.3 to 2) | Additivity (0.7 to 1.3) | Additivity (0.7 to 1.3) | Additivity (0.7 to 1.3) |  |  |  | 
4 | C[C@@]1(CO)[C@H](O)CC[C@@]2(C)[C@H]1CC[C@H]1C[C@@H]3C[C@@]12CC[C@]3(O)COC(=O)CN.Cl [Aphidicolin glycinate] |  |  |  |  | Additivity (0.7 to 1.3) | Synergy (0 to 0.7) |  | Call, anti-proliferative effect of combination with Compound 1, SW620 [1, 7]: Additivity (0.7 to 1.3); Call, anti-proliferative effect of combination with Compound 1, H460 [4, 7]: Additivity (0.7 to 1.3); Call, anti-proliferative effect of combination with Compound 1, A549 [5]: Additivity (key: Inconclusive: Any; Additivity: 0.7 to 1.3; Synergy: 0 to 0.7; Subadditivity: 1.3 to 2; Antagonism: >2)
5 | Nc1cc(C(F)(F)F)c(-c2cc(N3CCOCC3)nc(N3CCOCC3)n2)cn1 [BKM-120] | Additivity (0.7 to 1.3) | Additivity (0.7 to 1.3) | Additivity (0.7 to 1.3) | Additivity (0.7 to 1.3) |  |  | Additivity (0.7 to 1.3) | 
6 | CO/C1=C\C(C)=C\[C@@H](C)[C@@H](O)[C@@H](C)C/C(C)=C/C=C/[C@H](OC)[C@@H]([C@@H](C)[C@@H](O)[C@H](C)[C@@]2(O)C[C@@H](O)[C@H](C)[C@@H](C(C)C)O2)OC1=O [Bafilomycin A] | Additivity (0.7 to 1.3) | Subadditivity (1.3 to 2) | Additivity (0.7 to 1.3) |  |  |  | Additivity (0.7 to 1.3) | Call, anti-proliferative effect of combination with Compound 1, A549 [5]: Additivity (key: Inconclusive: Any; Additivity: 0.7 to 1.3; Synergy: 0 to 0.7; Subadditivity: 1.3 to 2; Antagonism: >2)
7 | C[C@H]1CCC/C=C/[C@@H]2C[C@H](O)C[C@H]2[C@H](O)/C=C/C(=O)O1 [Brefeldin A] |  |  |  |  | Subadditivity (1.3 to 2) | Additivity (0.7 to 1.3) |  | Call, anti-proliferative effect of combination with Compound 1, SW620 [1, 7]: Additivity (0.7 to 1.3); Call, anti-proliferative effect of combination with Compound 1, H460 [4, 7]: Additivity (0.7 to 1.3); Call, anti-proliferative effect of combination with Compound 1, A549 [5, 7]: Additivity (0.7 to 1.3)
8 | CS(=O)(=O)OCCCCOS(C)(=O)=O [Busulfan] |  |  |  |  | Synergy (0 to 0.7) |  |  | 
9 | C=CCNC1=C2C[C@@H](C)C[C@H](OC)[C@H](O)[C@@H](C)/C=C(\C)[C@H](OC(N)=O)[C@@H](OC)/C=C\C=C(/C)C(=O)NC(=CC1=O)C2=O [Compound 17-AAG] | Additivity (0.7 to 1.3) | Additivity (0.7 to 1.3) | Additivity (0.7 to 1.3) | Additivity (0.7 to 1.3) |  |  | Additivity (0.7 to 1.3) | 
10 | CO[C@H]1/C=C\C=C(/C)C(=O)NC2=CC(=O)C(NCCN(C)C)=C(C[C@@H](C)C[C@H](OC)[C@H](O)[C@@H](C)/C=C(\C)[C@@H]1OC(N)=O)C2=O [Compound 17-DMAG] | Additivity (0.7 to 1.3) | Additivity (0.7 to 1.3) | Additivity (0.7 to 1.3) | Subadditivity (1.3 to 2) |  |  | Additivity (0.7 to 1.3) | 
11 | Nc1ccn([C@@H]2O[C@H](CO)[C@@H](O)[C@@H]2O)c(=O)n1 [Cytarabine] |  |  |  |  | Synergy (0 to 0.7) | Additivity (0.7 to 1.3) |  | Call, anti-proliferative effect of combination with Compound 1, SW620 [1, 7]: Synergy (0 to 0.7); Call, anti-proliferative effect of combination with Compound 1, H460 [4, 7]: Additivity (0.7 to 1.3); Call, anti-proliferative effect of combination with Compound 1, A549 [5, 7]: Additivity (0.7 to 1.3)
12 | CN(C)/N=N/c1[nH]cnc1C(N)=O [Dacarbazine] |  |  |  |  |  | Additivity (0.7 to 1.3) |  | 
13 | Cc1c2oc3c(C)ccc(C(=O)N[C@@H]4C(=O)N[C@H](C(C)C)C(=O)N5CCC[C@H]5C(=O)N(C)CC(=O)N(C)[C@@H](C(C)C)C(=O)O[C@@H]4C)c3nc-2c(C(=O)N[C@@H]2C(=O)N[C@H](C(C)C)C(=O)N3CCC[C@H]3C(=O)N(C)CC(=O)N(C)[C@@H](C(C)C)C(=O)O[C@@H]2C)c(N)c1=O [Dactinomycin] (I: T[dV]P[Sar][NMeV] / II: T[dV]P[Sar][NMeV]; ester I:1-I:C, II:1-II:C; linker I:N-II:N via Actinocin(9to1)) |  |  |  |  | Additivity (0.7 to 1.3) | Additivity (0.7 to 1.3) |  | Call, anti-proliferative effect of combination with Compound 1, SW620 [1, 7]: Additivity (0.7 to 1.3); Call, anti-proliferative effect of combination with Compound 1, H460 [4, 7]: Additivity (0.7 to 1.3); Call, anti-proliferative effect of combination with Compound 1, A549 [5]: Additivity (key: Inconclusive: Any; Additivity: 0.7 to 1.3; Synergy: 0 to 0.7; Subadditivity: 1.3 to 2; Antagonism: >2)
14 | COc1cccc2c1C(=O)c1c(O)c3c(c(O)c1C2=O)C[C@@](O)(C(=O)CO)C[C@@H]3O[C@H]1C[C@H](N)[C@H](O)[C@H](C)O1 [Doxorubicin hydrochloride] |  |  |  |  | Synergy (0 to 0.7) | Subadditivity (1.3 to 2) |  | Call, anti-proliferative effect of combination with Compound 1, SW620 [1, 7]: Additivity (0.7 to 1.3); Call, anti-proliferative effect of combination with Compound 1, H460 [4, 7]: Synergy (0 to 0.7); Call, anti-proliferative effect of combination with Compound 1, A549 [5, 7]: Synergy (0 to 0.7)
15 | CN1CC[C@H](c2c(O)cc(O)c3c(=O)cc(-c4ccccc4Cl)oc23)[C@H](O)C1 [Flavopiridol] |  |  |  |  |  |  | Additivity (0.7 to 1.3) | 
16 | CS(=O)(=O)N1CCN(Cc2cc3nc(-c4cccc5[nH]ncc45)nc(N4CCOCC4)c3s2)CC1 [GDC-0941] | Additivity (0.7 to 1.3) | Additivity (0.7 to 1.3) | Synergy (0 to 0.7) | Additivity (0.7 to 1.3) |  |  | Synergy (0 to 0.7) | 
17 | S=c1nc[nH]c2nc[nH]c12 [Mercaptopurine] |  |  |  |  | Additivity (0.7 to 1.3) | Additivity (0.7 to 1.3) |  | Call, anti-proliferative effect of combination with Compound 1, SW620 [1, 7]: Subadditivity (1.3 to 2); Call, anti-proliferative effect of combination with Compound 1, H460 [4, 7]: Additivity (0.7 to 1.3)
18 | Nc1nc(OCc2ccccc2)c2nc[nH]c2n1 [O6-Benzylguanine] |  |  |  |  | Additivity (0.7 to 1.3) |  |  | 
19 | CO[C@@H]1[C@H](N(C)C(=O)c2ccccc2)C[C@H]2O[C@]1(C)n1c3ccccc3c3c4c(c5c6ccccc6n2c5c31)C(=O)NC4 [PKC412] | Additivity (0.7 to 1.3) | Subadditivity (1.3 to 2) | _Additivity |  |  |  | Antagonism (>2) | 
20 | CCCS(=O)(=O)Nc1ccc(F)c(C(=O)c2c[nH]c3ncc(-c4ccc(Cl)cc4)cc23)c1F [PLX4032] |  | Additivity (0.7 to 1.3) | Additivity (0.7 to 1.3) | Additivity (0.7 to 1.3) |  |  | Additivity (0.7 to 1.3) | 
21 | Cc1[nH]c2ccccc2c1CCNCc1ccc(/C=C/C(=O)NO)cc1 [Panobinostat] | Additivity (0.7 to 1.3) | Subadditivity (1.3 to 2) | Additivity (0.7 to 1.3) | Additivity (0.7 to 1.3) |  |  | Additivity (0.7 to 1.3) | 
22 | Tunicamycin | Additivity (0.7 to 1.3) | Additivity (0.7 to 1.3) | Synergy (0 to 0.7) |  |  |  | Additivity (0.7 to 1.3) | 
